Data published in paper PMC3479139, “Diverse Small Molecule Inhibitors of Human Apurinic/Apyrimidinic Endonuclease APE1 Identified from a Screen of a Large Public Collection” (PLoS ONE, 2012).

Assays:
APE1 [1] = target: T1, APE1 (Homo sapiens, UniProt P27695); assay: Fluorogenic kinetic qHTS APE1 incision assay (primary screen and retest of cherrypicked samples); format: biochemical;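 also: purified APE1 cleaving a fluorophore/dark-quencher labelled 17-mer duplex DNA bearing a tetrahydrofuran AP site, fluorescence rise followed kinetically over the first 2 min, inhibition normalized to controls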
T1 construct: made in house
T1 sequence (P27695 whole entry): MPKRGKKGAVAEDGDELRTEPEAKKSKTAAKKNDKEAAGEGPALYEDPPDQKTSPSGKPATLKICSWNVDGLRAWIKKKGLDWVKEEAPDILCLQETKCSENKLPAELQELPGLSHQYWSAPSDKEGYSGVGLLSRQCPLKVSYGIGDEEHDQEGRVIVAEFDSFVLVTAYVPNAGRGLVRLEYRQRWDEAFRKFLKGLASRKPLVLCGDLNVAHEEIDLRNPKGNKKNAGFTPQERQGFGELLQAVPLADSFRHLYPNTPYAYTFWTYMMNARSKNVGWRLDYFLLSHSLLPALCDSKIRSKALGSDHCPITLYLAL

APE1 [2] = target: T1, APE1; assay: Gel-based radiotracer (32P) APE1 incision assay; format: biochemical; parameters: concentration or dose not given beside the values; settings: percent incision shown; entries 1-112;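 also: APE1 incision reactions ran 5 min at 37 °C, with cleaved product and intact substrate resolved electrophoretically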
APE1 [3] = target: T1, APE1; assay: Fluorescence polarization (FP) displacement assay of APE1 binding to AP-DNA probe; settings: read-out: FP IC50;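 also: TAMRA 5′-labeled duplex DNA with THF abasic site (5 nM) and APE1 (20 nM), Mg2+-free buffer, 15 min at room temperature, inhibition seen as lowered polarization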
Experimental: Double-stranded oligodeoxynucleotide containing tetrahydrofuran (THF) abasic site labeled with TAMRA at the 5′-end was used as the labeled binding probe. Inhibition of APE1 binding to labeled probe was detected by a decrease in the fluorescence polarization (FP) of the fluorophore. Briefly, 4 µL mixture of 20 nM APE1 and 5 nM probe contained in the enzymatic assay buffer from which Mg^2+ was omitted, was dispensed into 1536-well Greiner black solid bottom plates. Compounds (23 nL) were transferred via pintool, and after a 15-minute incubation at room temperature, fluorescence polarization was measured in a ViewLux High-throughput CCD imager (480 nm excitation and 540 nm emission) to determine the degree of probe displacement caused by the test compounds.

[4] = target: double-stranded 17-mer DNA fragment; assay: ThO (Thiazole Orange) DNA displacement assay; format: binding; settings: read-out: ThO-DNA binding IC50;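 also: miniaturized displacement of the intercalating dye from unlabeled duplex DNA, used to flag nonspecific DNA binders, chiefly intercalators, groove binders may be missed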
Description: The double-stranded 17-mer DNA fragment used in the ThO DNA binding assay was of the same sequence as the fluorogenic HTS substrate but carried no dye labels.
(§1) In order to screen out nonselective compounds, such as non-specific DNA binders and inhibitors of related enzymes, we used a miniaturized ThO DNA displacement assay and a counterscreen against the bacterial endonuclease E. coli Endo IV, respectively, following the previously published protocols [21].
To detect screening hits that inhibit APE1 activity through non-specific DNA interactions, we employed a previously established miniaturized ThO dye displacement assay [21]. […] We note that the ThO assay reports primarily on DNA binders acting through intercalation, while potentially missing other types of DNA binders, such as those acting through the minor groove.

E. coli Endo IV = target: T2, E. coli Endo IV (Escherichia coli, UniProt P0A6C1); assay: E. coli Endo IV profiling counterscreen; format: biochemical; settings: read-out: EndoIV IC50;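 also: selectivity counterscreen of candidate APE1 inhibitors against the bacterial endonuclease Endo IV, run in the same assay format as the primary APE1 high-throughput screen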
T2 construct: made in house
Description: as §1
To probe the selectivity of the candidate APE1 inhibitors, we tested them against E. coli EndoIV [36], employing the same assay as used in the HTS.

HeLa cells = assay: MMS potentiation assay (CellTiter Glo viability); format: cell-based, human; parameters: key: N.A., no activity observed; P, positive; I, inconclusive; N.T., not tested; settings: for MMS Assay: potentiation of the genotoxic effect of methylmethane sulfonate
Experimental: HeLa cells were plated at 6000 cells/well in DMEM culture medium containing 10% FBS into white solid bottom 384-well cell culture plates. The plates were incubated at 37°C overnight for cell attachment, followed by media replacement. The fresh medium contained serial dilutions of compounds of interest in the presence (0.4 mM final) or absence of MMS. The plates were incubated for 24 h at 37°C. Cell viability was determined by luminescence detection after an addition of 15 µL of CellTiter Glo reagent (Promega, Madison, WI). Percent viability was calculated for each concentration of compound tested in duplicate by relating the corresponding luminescence to that of a negative DMSO vehicle control. MMS potentiation trends were defined as follows: negative (-), if cell viability in the compound-plus-MMS treatment was the same as that of the DMSO-plus-MMS control (overlapping dose-response curves); inconclusive (I), if the shift in the cell viability dose-response upon MMS inclusion relative to compound-alone was less than 30%; and positive (P), if the difference between the compound-plus-MMS and compound-alone curves was at least 30%, and maintained within at least a two-fold compound concentration span.
To examine the biological prospects of the top compounds, we tested their ability to inhibit APE1 DNA repair activity by assessing enhancement of MMS toxicity in mammalian cells. MMS creates methylated-base damage to genomic DNA, which, when excised by an alkylpurine DNA glycosylase, results in a high number of cytotoxic AP sites. We compared the viability of HeLa cells exposed to a dilution series of inhibitor alone to a combination of a fixed MMS concentration with the same dilution series of inhibitor by using a standard CellTiter Glo luminescence assay. This technique measures the number of viable cells in culture based on quantitation of the ATP present, which signals the presence of metabolically active cells. The assay was further optimized for 384-well plates, allowing a high-throughput testing of multiple hits at multiple concentrations, a scope of investigation previously impossible due to the very low throughput of the traditionally applied colony formation assay.
From the 223 compounds found positive in the gel-based APE1 assays, exclusion of the most promiscuous hits, that is, those that were both DNA binders and EndoIV-inhibitory, yielded a set of 170 compounds (Figure 3). This shortened group of hits was tested in the cell-based potentiation assay for their ability to dose-dependently enhance sensitivity of HeLa cells to the alkylating agent MMS.

APE1 [5] = target: T1, APE1; assay: Gel-based APE1 incision assay with fluorescence (TAMRA) detection; format: biochemical
Experimental: To test the compounds’ inhibitory activity after the primary screen, two assays designed to monitor the cleavage of substrate to product through electrophoretic separation were utilized. The radiotracer incision assay, utilizing a ^32P-labeled substrate, was performed essentially as described [21], [31], [32]. Incision reactions utilizing ^32P-labeled substrate were carried out for 5 min at 37°C. After the addition of an equal volume of stop buffer (0.05% bromophenol blue and xylene cyanol, 20 mM EDTA, 95% formamide), the substrate and product were separated on a standard polyacrylamide denaturing gel and quantified by PhosphorImager analysis [32]. […] APE1 cleavage of the substrate results in a 18-mer TAMRA-labeled fragment which was separated by a non-denaturing polyacrylamide gel electrophoresis and quantitated in a Gel Doc XR imaging system, BioRad (Hercules, CA). The advantage of this assay is that it can be used in a relatively high throughput mode with the inhibitors tested at a range of concentrations (0.17 µM to 125 µM was used here). APE1 (0.15 nM) was added to a reaction mixture of 20 µL containing assay buffer (40 mM HEPES pH 7.5, 50 mM NaCl, 1 mM MgCl2 and 2 mM DTT), and labeled ds DNA substrate (final 75 nM). The mixture was incubated at RT for 15 min, and the reaction was stopped by the addition 20 µL of 2X dye stop solution (10% glycerol, 20 mM EDTA and bromophenol blue). Then 10 µL of the mixture was resolved on 20% polyacrylamide gel in 1X Tris-borate EDTA running buffer at 250 V for 40 min.
To eliminate false positive hits, all 595 confirmed molecules were tested for their ability to inhibit APE1 incision activity using biochemical assays that involve electrophoretic separation of the substrate and cleavage product.

[6] = initial quantitative high-throughput screen, read-out: APE1 qHTS IC50
[7] = retest of cherrypicked sample, read-out: APE1 Retest IC50
[8] = entries 113-223: fluorophore detection, estimated IC50, read-out: Gel-based electrophoretic separation assay with fluorophore detection, estimated IC50 (column headed Radiotracer Assay (%Activity))
[9] = estimated IC50, fluorophore detection, entries 113-223, read-out: F-PAGE Assay IC50

Row | SMILES | IC50 (APE1 [1]; [6]) [µM] | IC50 (APE1 [1]; [7]) [µM] | Radiotracer Assay (%Activity) (APE1 [2]) [%] | IC50 (APE1 [3]) [µM] | IC50 [4] [µM] | IC50 (E. coli Endo IV) [µM] | MMS Assay (HeLa cells) | IC50 (APE1 [5]; [8]) [µM] | MMS Assay: potentiation of the genotoxic effect of methylmethane sulfonate (HeLa cells) | IC50 (APE1 [5]; [9]) [µM]
1 | COc1ccc(CN2C(=O)NC(=O)/C(=C\c3ccco3)C2=O)cc1 [MLS000723827] | 22.4 | 14.1 | 18 | > 57 | > 57 | > 57 | I |  |  | 
2 | Cn1cccc1/C=C1\C(=O)NC(=O)N(Cc2ccco2)C1=O [MLS000677191] | 14.1 | 4.5 | 5 | > 57 | > 57 | > 57 | I |  |  | 
3 | O=C(O[C@@H]1OC2COC(=O)c3cc(O)c(O)c(O)c3-c3c(cc(O)c(O)c3O)C(=O)O[C@@H]([C@H]1O)[C@@H]2O)c1cc(O)c(O)c(O)c1 [MLS000563483] | 0.07 | 0.05 | 16 | > 57 | > 57 | > 57 | I |  |  | 
4 | CC(C(=O)O)N1C(=O)/C(=C/C=C/c2ccco2)SC1=S (centres unmarked) [MLS000551724] | 2.8 | 0.9 | 9 | 12.6 | > 57 | > 57 | I |  |  | 
5 | Cc1cccn2c(=O)c3cc(C(=O)NCc4ccco4)c(=N)n(C4CCCCC4)c3nc12 [MLS001217741] | 16.8 | 12.9 |  | > 57 | > 57 | > 57 |  | 22.4 | P | 
6 | COc1ccc(C(=O)Nc2ccnn2C2CCN(Cc3ccc4nonc4c3)CC2)cc1 [MLS001090278] | 5.3 | 10.2 |  | > 57 | > 57 | > 57 |  | 10 | I | 
7 | O=C1/C(=C/C=C/c2ccco2)SC(=S)N1NS(=O)(=O)c1ccccc1 [MLS000778639] | 2.5 | 3.5 | 6 | > 57 | > 57 | > 57 | I |  |  | 
8 | CCc1cc(CNC(=O)c2ccc(OC3CCN(CCc4ccccc4)CC3)cc2)on1 [MLS001105846] | 11.9 | 6.5 |  | 32.4 | > 57 | > 57 | P |  |  | 4.5
9 | O=C(O)C1Nc2ccc(Br)cc2C2C=CCC12 (centres unmarked) [MLS001209038] | 13.4 | 18.2 |  | > 57 | 25.7 | > 57 | I |  |  | 6.3
10 | O=C(O)c1ccccc1-c1ccc(/C=c2\sc3nc4cc(Br)cnc4n3c2=O)o1 [MLS000107874] | 22.4 | 8.9 | 11 | 17.8 | > 57 | > 57 | I |  |  | 
11 | O=C1CC(=O)N(Cc2ccco2)C(=S)N1 [MLS000535286] | 11.2 | 12.6 | 28 | > 57 | > 57 | > 57 | I |  |  | 
